Laboratory results reported in patent US20220187282A1, “CARDIOMYOCYTE PROLIFERATION” (The Council of the Queensland Institute of Medical Research, priority 2019, published 2022).
Like-named read-outs stand apart in the source and are kept apart here.

Assays:
Format in all cases: biochemical
kinases [1] = target: kinases (Homo sapiens, UniProt Q9Y2H1); details: STK38L (NDR2) FRET-Lantha SP; Test Conc(μM) 1
kinases [2] = target: kinases (Homo sapiens, UniProt Q9H2X6); details: HIPK2 FRET-Z-Lyte SP; Test Conc(μM):ATP Conc(μM) 1:10
kinases [3] = target: kinases (Homo sapiens, UniProt Q02750)
Sequence of kinases (Homo sapiens, UniProt Q02750) (Q02750 whole entry): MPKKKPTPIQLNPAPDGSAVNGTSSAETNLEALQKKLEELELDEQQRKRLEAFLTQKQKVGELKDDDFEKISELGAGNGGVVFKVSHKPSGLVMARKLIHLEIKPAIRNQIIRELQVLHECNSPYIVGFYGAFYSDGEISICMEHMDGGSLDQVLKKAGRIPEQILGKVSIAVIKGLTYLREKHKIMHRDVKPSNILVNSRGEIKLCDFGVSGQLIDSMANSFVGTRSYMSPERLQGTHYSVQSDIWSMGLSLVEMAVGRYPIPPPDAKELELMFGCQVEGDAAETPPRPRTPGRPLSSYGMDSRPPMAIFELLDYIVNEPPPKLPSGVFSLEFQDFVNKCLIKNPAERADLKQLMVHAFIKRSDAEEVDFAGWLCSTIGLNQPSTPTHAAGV

kinases [4] = target: kinases (Homo sapiens, UniProt P14616); details: INSRR (IRR) *Mn* Z-Lyte SP; Test Conc(μM):ATP Conc(μM) 1:50
kinases [5] = target: kinases (Homo sapiens, UniProt O14986); details: Test Conc(μM):ATP Conc(μM) 1:10
kinases [6] = target: kinases (Homo sapiens, UniProt P54756); details: EPHA5 FRET-Z-Lyte SP; Test Conc(μM):ATP Conc(μM) 1:150
kinases [7] = target: kinases (Homo sapiens, UniProt P36894); details: BMPR1A (ALK3) FRET-Lantha SP; Test Conc(μM) 1
Sequence of kinases (Homo sapiens, UniProt P36894) (P36894 24-532): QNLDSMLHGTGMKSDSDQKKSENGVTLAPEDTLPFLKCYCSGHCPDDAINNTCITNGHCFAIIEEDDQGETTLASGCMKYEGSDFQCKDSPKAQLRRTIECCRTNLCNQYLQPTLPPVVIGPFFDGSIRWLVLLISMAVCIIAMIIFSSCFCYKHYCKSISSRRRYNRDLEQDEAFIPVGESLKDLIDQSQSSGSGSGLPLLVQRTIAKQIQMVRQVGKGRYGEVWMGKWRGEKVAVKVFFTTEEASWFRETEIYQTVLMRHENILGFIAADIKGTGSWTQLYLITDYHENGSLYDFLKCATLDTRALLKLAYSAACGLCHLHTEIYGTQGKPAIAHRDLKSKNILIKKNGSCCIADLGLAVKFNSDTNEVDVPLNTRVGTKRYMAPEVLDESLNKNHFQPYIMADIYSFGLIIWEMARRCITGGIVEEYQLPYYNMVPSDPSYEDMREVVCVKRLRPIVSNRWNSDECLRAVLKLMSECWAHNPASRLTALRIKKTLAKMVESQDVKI

kinases [8] = target: kinases (Homo sapiens, UniProt O00329); details: PIK3CD/PIK3R1 FRET-Adapta SP; Test Conc(μM):ATP Conc(μM) 1:75
kinases [9] = target: kinases (Homo sapiens, UniProt Q9Y243); details: AKT3 (PKB gamma) Z-Lyte SP; Test Conc(μM):ATP Conc(μM) 1:100
Sequence of kinases (Homo sapiens, UniProt Q9Y243) (Q9Y243 whole entry): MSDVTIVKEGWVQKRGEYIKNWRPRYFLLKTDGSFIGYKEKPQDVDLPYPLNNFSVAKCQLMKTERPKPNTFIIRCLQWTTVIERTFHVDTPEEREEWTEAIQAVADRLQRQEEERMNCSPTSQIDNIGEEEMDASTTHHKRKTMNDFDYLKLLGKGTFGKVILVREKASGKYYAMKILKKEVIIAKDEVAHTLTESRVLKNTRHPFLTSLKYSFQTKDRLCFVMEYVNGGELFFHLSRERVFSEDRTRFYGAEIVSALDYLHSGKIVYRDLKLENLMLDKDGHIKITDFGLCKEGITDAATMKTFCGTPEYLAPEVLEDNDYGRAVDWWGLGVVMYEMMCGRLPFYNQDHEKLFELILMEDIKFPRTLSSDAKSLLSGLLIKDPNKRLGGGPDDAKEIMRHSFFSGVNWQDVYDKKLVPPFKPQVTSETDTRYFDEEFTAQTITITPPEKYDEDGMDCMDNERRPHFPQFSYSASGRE

kinases [10] = target: kinases (Homo sapiens, UniProt P22455); details: FGFR4 *Mn* FRET-Z-Lyte SP; Test Conc(μM):ATP Conc(μM) 1:150
Sequence of kinases (Homo sapiens, UniProt P22455) (P22455 22-802): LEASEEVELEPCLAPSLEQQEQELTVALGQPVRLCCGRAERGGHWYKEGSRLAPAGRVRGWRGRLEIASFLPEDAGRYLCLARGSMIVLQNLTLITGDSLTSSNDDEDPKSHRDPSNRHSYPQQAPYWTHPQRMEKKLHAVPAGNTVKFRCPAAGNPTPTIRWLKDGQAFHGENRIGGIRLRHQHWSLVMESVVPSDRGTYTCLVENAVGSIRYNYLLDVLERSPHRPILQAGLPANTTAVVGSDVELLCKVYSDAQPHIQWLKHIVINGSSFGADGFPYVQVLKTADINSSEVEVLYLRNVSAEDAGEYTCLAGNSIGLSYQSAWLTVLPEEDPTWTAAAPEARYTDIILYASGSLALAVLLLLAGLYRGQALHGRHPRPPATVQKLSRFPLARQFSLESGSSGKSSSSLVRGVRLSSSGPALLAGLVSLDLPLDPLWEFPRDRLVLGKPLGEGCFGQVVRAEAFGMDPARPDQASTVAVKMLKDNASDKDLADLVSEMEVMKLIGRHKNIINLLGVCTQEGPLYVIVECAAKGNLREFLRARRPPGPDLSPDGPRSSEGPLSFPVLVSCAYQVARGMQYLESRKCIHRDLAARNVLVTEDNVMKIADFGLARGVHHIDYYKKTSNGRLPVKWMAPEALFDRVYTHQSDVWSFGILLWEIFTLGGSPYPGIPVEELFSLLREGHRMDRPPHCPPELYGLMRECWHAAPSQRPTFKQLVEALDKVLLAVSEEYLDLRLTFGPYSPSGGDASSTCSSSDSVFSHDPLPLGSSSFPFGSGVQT

kinases [11] = target: kinases (Homo sapiens, UniProt Q8N4C8); details: MINK1 FRET-Z-Lyte SP; Test Conc(μM):ATP Conc(μM) 1:25
kinases [12] = target: kinases (Homo sapiens, UniProt P07949); details: RET Hu Phos FRET-Z-Lyte SP; Test Conc(μM):ATP Conc(μM) 1:10
Sequence of kinases (Homo sapiens, UniProt P07949) (P07949 29-1114): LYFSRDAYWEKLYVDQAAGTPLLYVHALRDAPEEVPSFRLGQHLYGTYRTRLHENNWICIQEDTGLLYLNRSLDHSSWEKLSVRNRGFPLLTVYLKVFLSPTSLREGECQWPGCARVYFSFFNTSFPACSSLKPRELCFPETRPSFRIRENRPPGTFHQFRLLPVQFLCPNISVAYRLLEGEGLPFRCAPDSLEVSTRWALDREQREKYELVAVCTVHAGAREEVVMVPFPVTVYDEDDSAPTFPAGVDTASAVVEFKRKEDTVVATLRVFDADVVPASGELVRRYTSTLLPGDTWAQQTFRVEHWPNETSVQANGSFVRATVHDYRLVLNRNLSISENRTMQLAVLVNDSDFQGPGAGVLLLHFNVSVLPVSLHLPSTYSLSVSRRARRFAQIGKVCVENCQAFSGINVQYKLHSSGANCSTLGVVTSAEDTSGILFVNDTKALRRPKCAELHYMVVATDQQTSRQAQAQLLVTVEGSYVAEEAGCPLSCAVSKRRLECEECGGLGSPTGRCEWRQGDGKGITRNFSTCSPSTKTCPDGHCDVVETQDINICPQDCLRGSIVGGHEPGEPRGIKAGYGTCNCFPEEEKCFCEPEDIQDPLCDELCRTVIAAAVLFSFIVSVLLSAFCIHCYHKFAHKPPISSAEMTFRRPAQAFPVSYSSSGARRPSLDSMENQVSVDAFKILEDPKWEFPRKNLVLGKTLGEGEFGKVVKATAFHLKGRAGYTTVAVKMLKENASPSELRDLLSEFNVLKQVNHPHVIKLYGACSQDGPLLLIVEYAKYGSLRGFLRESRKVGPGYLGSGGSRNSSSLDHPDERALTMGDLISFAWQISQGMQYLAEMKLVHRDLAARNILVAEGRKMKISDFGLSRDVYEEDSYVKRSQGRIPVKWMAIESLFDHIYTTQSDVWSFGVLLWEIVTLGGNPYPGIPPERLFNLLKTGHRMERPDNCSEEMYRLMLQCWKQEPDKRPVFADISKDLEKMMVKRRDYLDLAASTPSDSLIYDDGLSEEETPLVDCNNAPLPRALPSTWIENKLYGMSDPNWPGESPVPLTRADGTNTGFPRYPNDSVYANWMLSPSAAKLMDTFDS

kinases [13] = target: kinases (Homo sapiens, UniProt Q02763); details: TEK (Tie2) *Mn* FRET-Z-Lyte SP; Test Conc(μM):ATP Conc(μM) 1:10
kinases [14] = target: kinases (Homo sapiens, UniProt Q15418); details: RPS6KA1 (RSK1) FRET-Z-Lyte SP; Test Conc(μM):ATP Conc(μM) 1:5
kinases [15] = target: kinases (Homo sapiens, UniProt Q99759); details: MAP3K3 (MEKK3) FRET-Lantha SP; Test Conc(μM) 1
Sequence of kinases (Homo sapiens, UniProt Q99759) (Q99759 whole entry): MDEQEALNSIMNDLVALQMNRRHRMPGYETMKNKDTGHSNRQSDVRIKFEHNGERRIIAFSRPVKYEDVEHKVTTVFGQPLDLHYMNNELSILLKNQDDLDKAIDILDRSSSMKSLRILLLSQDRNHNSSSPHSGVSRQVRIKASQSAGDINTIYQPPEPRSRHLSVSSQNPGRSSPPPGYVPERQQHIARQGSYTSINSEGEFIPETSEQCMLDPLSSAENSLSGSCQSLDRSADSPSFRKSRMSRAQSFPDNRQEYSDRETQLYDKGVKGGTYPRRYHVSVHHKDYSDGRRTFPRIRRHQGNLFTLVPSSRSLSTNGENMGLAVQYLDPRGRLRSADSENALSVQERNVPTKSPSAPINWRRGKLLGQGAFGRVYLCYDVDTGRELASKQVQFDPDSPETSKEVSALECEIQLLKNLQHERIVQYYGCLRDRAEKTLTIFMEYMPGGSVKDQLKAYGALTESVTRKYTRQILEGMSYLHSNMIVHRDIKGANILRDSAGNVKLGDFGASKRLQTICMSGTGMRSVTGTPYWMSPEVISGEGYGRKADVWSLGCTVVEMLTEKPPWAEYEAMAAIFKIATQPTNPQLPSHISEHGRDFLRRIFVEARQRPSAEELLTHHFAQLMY

kinases [16] = target: kinases (Homo sapiens, UniProt Q15835); details: GRK1 FRET-Lantha SP; Test Conc(μM) 1
kinases [17] = target: kinases (Homo sapiens, UniProt Q9Y4K4); details: MAP4K5 (KHS1) FRET-Z-Lyte SP; Test Conc(μM):ATP Conc(μM) 1:50
kinases [18] = target: kinases (Homo sapiens, UniProt P11802); details: Test Conc(μM):ATP Conc(μM) 1:10
Sequence of kinases (Homo sapiens, UniProt P11802) (P11802 whole entry): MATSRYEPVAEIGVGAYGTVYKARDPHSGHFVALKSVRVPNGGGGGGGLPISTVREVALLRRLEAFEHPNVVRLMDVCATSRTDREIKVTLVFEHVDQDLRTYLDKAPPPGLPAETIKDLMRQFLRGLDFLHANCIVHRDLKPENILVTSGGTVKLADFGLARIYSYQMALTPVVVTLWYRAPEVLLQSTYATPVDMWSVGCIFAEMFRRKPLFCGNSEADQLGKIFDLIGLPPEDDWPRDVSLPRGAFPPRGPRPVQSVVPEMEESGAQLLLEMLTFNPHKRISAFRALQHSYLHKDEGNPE

kinases [19] = target: kinases (Homo sapiens, UniProt P42680); details: TEC FRET-Lantha SP; Test Conc(μM) 1
kinases [20] = target: kinases (Homo sapiens, UniProt Q9UPZ9); details: ICK FRET-Lantha SP; Test Conc(μM) 1
kinases [21] = target: kinases (Homo sapiens, UniProt Q7L7X3); details: TAOK1 FRET-Lantha SP; Test Conc(μM) 1
kinases [22] = target: kinases (Homo sapiens, UniProt Q16816); details: PHKG1 FRET-Z-Lyte SP; Test Conc(μM):ATP Conc(μM) 1:75
Sequence of kinases (Homo sapiens, UniProt Q16816) (Q16816 whole entry): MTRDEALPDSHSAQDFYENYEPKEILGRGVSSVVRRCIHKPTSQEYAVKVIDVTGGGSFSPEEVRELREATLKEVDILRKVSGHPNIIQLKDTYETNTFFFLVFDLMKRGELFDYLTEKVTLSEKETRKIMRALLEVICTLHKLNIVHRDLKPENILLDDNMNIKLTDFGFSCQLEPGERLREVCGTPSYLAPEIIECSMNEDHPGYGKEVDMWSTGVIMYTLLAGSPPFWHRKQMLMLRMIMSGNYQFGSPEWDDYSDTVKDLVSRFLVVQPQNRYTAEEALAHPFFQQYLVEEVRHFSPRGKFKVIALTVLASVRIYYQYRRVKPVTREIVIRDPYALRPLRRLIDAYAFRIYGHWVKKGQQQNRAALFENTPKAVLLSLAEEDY

kinases [23] = target: kinases (Homo sapiens, UniProt P05771); details: PRKCB1 (PKC beta I) Z-Lyte SP; Test Conc(μM):ATP Conc(μM) 1:200
kinases [24] = target: kinases (Homo sapiens, UniProt P06213); details: INSR *Mn* FRET-Z-Lyte SP; Test Conc(μM):ATP Conc(μM) 1:25
kinases [25] = target: kinases (Homo sapiens, UniProt Q99640); details: PKMYT1 FRET-Lantha SP; Test Conc(μM) 1
kinases [26] = target: kinases (Homo sapiens, UniProt Q13043); details: STK4 (MST1) FRET-Z-Lyte SP; Test Conc(μM):ATP Conc(μM) 1:50
kinases [27] = target: kinases (Homo sapiens, UniProt Q86Y07); details: VRK2 FRET-Lantha SP; Test Conc(μM) 1
kinases [28] = target: kinases (Homo sapiens, UniProt Q96GD4); details: AURKB (Aurora B) Z-Lyte SP; Test Conc(μM):ATP Conc(μM) 1:75
Sequence of kinases (Homo sapiens, UniProt Q96GD4) (Q96GD4 whole entry): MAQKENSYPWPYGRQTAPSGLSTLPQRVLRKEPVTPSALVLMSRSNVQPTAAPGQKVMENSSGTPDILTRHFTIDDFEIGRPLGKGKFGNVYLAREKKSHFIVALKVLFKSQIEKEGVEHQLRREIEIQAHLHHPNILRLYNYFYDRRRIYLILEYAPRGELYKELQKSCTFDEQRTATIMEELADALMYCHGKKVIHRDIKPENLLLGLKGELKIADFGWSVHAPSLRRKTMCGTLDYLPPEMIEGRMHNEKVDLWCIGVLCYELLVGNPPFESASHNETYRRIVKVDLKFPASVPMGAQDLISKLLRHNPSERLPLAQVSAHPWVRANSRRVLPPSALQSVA

[29] = MAP2K1 (MEK1) FRET-Lantha SP, Test Conc(μM) 1
[30] = MAP2K1 (MEK1)Cascade Z-Lyte SP, Test Conc(μM):ATP Conc(μM) 1:100

SMILES | Mean Inhib (%) (kinases [1]) | Mean Inhib (%) (kinases [2]) | Mean Inhib (%) (kinases [3]; [29]) | Mean Inhib (%) (kinases [3]; [30]) | Mean Inhib (%) (kinases [4]) | Mean Inhib (%) (kinases [6]) | Mean Inhib (%) (kinases [7]) | Mean Inhib (%) (kinases [8]) | Mean Inhib (%) (kinases [9]) | Mean Inhib (%) (kinases [10]) | Mean Inhib (%) (kinases [11]) | Mean Inhib (%) (kinases [12]) | Mean Inhib (%) (kinases [13]) | Mean Inhib (%) (kinases [14]) | Mean Inhib (%) (kinases [15]) | Mean Inhib (%) (kinases [16]) | Mean Inhib (%) (kinases [17]) | Mean Inhib (%) (kinases [19]) | Mean Inhib (%) (kinases [20]) | Mean Inhib (%) (kinases [21]) | also measured
Cc1ccc(NC(=O)c2ccnc(N3CCOCC3)c2)cc1Nc1ccnc(N2CC(C)OC(C)C2)n1 (stereo not drawn) [compound 3] | 15.6 | −3.2 | −3.2 | 20.0 | 13.5 | 6.7 | −1.5 | 1.0 | 5.8 | 14.8 | 1.6 | 22.8 | −4.4 | 14.8 | 5.2 | −3.1 | −7.8 | 5.7 | 0.3 | −6.0 | Mean Inhib (%) (kinases [5]; PIP5K1B FRET-Adapta SP): 4.5%; Mean Inhib (%) (kinases [18]; CDK4 Cyclin D1 *Mn* Adapta SP): 7.8%; Mean Inhib (%) (kinases [18]; CDK4 Cyclin D3 *Mn* Adapta SP): 5.0%; Mean Inhib (%) (kinases [22]): −3.8%; Mean Inhib (%) (kinases [23]): 27.7%; Mean Inhib (%) (kinases [24]): 2.1%; Mean Inhib (%) (kinases [25]): 9.3%; Mean Inhib (%) (kinases [26]): −3.1%; Mean Inhib (%) (kinases [27]): −5.7%; Mean Inhib (%) (kinases [28]): 4.9%
Cc1cc(Oc2ccnc(Nc3ccc(S(N)(=O)=O)cc3)c2)c(-c2ccccn2)nc1C [compound 65] | 5.5 | −0.8 | −0.5 | 17.3 | 5.5 | 65.2 | 83.6 | 23.8 | 4.2 | −0.9 | 19.9 | 31.0 | −7.9 | 5.3 | 14.8 | 3.7 | 38.0 | −1.4 | 6.0 | 33.0 | PIP5K1B FRET-Adapta SP Mean Mean Inhib (%) (kinases [5]; PIP5K1B): 2.1%; CDK4 Cyclin D1 *Mn* Adapta SP Mean Mean Inhib (%) (kinases [18]; CDK4 Cyclin D1, Mn): 2.5%; CDK4 Cyclin D3 *Mn* Adapta SP Mean Mean Inhib (%) (kinases [18]; CDK4 Cyclin D3, Mn): −3.9%; Mean Inhib (%) (kinases [22]): −6.4%; Mean Inhib (%) (kinases [23]): −7.3%; Mean Inhib (%) (kinases [24]): 1.5%; Mean Inhib (%) (kinases [25]): −14.5%; Mean Inhib (%) (kinases [26]): 8.7%; Mean Inhib (%) (kinases [27]): −16.6%; Mean Inhib (%) (kinases [28]): 2.7%
